Source: patent US7977332B2, “Insecticidal N-(heteroarylalkyl)alkanediamine derivatives” (FMC Corporation, priority 2003, dated 2011)

Test system: tobacco budworm (Heliothis virescens [Fabricius])
Assay: surface-treated diet test against tobacco budworm
Assay type: in vivo
Conditions: 0.25 millimolar on the surface of the diet, second instar larvae, five-day exposure; for Percent Growth Inhibition: insect weight relative to untreated controls
Protocol: Candidate insecticides were evaluated for activity against the tobacco budworm (Heliothis virescens [Fabricius]) in a surface-treated diet test.
In this test one mL of molten (65-70° C.) wheat germ-based artificial diet was pipetted into each well of a four by six (24 well) multi-well plate (ID# 430345-15.5 mm dia.×17.6 mm deep; Corning Costar Corp., One Alewife Center, Cambridge, Mass. 02140). The diet was allowed to cool to ambient temperature before treatment with candidate insecticide.
For a determination of insecticidal activity, solutions of the candidate insecticides were prepared for testing using a Packard 204DT Multiprobe® Robotic System (Packard Instrument Company, 800 Research Parkway, Meriden, Conn. 06450), in which the robot first diluted a standard 50 millimolar DMSO solution of candidate insecticide with a 1:1 water/acetone solution (V/V) in a ratio of 1:7 stock solution to water/acetone. The robot subsequently pipetted 40 microliters of the so-prepared solution onto the surface of the diet in each of three wells in the 24 multi-well plate. The process was repeated with solutions of seven other candidate insecticides. Once treated, the contents of the multi-well plate were allowed to dry, leaving 0.25 millimoles of candidate insecticide on the surface of the diet, or a concentration of 0.25 millimolar. Appropriate untreated controls containing only DMSO on the diet surface were also included in this test.
For evaluations of the insecticidal activity of a candidate insecticide at varying rates of application, the test was established as described above using sub-multiples of the standard 50 millimolar DMSO solution of candidate insecticide. For example, the standard 50 millimolar solution was diluted by the robot with DMSO to give 5, 0.5, 0.05, 0.005, 0.0005 millimolar, or more dilute solutions of the candidate insecticide. In these evaluations there were six replicates of each rate of application placed on the surface of the diet in the 24 multi-well plate, for a total of four rates of application of candidate insecticide in each plate.
In each well of the test plate was placed one second instar tobacco budworm larvea, each weighing approximately five milligrams. After the larvae were placed in each well, the plate was sealed with clear polyfilm adhesive tape. The tape over each well was perforated to ensure an adequate air supply. The plates were then held in a growth chamber at 25° C. and 60% relative humidity for five days (light 14 hours/day).
After the five-day exposure period insecticidal activity for each rate of application of candidate insecticide was assessed as percent inhibition of insect weight relative to the weight of insects from untreated controls, and percent mortality when compared to the total number of insects infested.
The test compounds of formula I are identified by numbers that correspond to those in Table 1.

| SMILES | Percent Growth Inhibition | Percent Mortality |
| --- | --- | --- |
| O=[N+]([O-])C=C(NCCN(Cc1ccc(Cl)nc1)Cc1ccc(Cl)nc1)SCc1c(F)c(F)c(F)c(F)c1F [Compound 318] | 100% | – |
| C#CCN(CCNC(=C[N+](=O)[O-])OCCOCCOC)Cc1ccc(Cl)nc1 [Compound 247] | 100% | – |
| CSC(=C[N+](=O)[O-])NCCN(CC#N)Cc1ccc(Cl)nc1 [Compound 10] | 90% | 17% |
| C#CCN(CCNC(=C[N+](=O)[O-])OCC1CCCCC1)Cc1ccc(Cl)nc1 [Compound 256] | 100% | – |
| CSC(=C[N+](=O)[O-])NCCN(Cc1ccc(Cl)nc1)Cc1ccc(Cl)nc1 [Compound 198] | 50% | – |
| C=C(Cl)CN(CCNC(=C[N+](=O)[O-])SC)Cc1ccc(Cl)nc1 [Compound 225] | 89% | – |
| CSC(=C[N+](=O)[O-])NCCN(O)Cc1ccc(Cl)nc1 [Compound 9] | 91% | – |
